“Also recorded” adds a separate entry of the source. Counter-ions that a name gives are not always drawn.

Data set [1] has as its system L-lactic acid influx transport in SkMC. The data set is described as follows: Kinetic parameters of L-lactic acid influx transport in SkMC. The data set is classed as cell-based, human. Here is the method:
After differentiation, and before the beginning of the transport experiments, cells were washed, and the medium replaced with HEPES (pH 7.4; 1 mL) buffer. Transport assays, including the pre-incubation period in HEPES, were performed at 37 °C. Assay conditions were previously optimized by standard incubations with L-lactic acid (e.g., incubation times). […] Assessment of influx transport. […] The suspension was passed through 27½ G needle 3-times. […] L-lactic acid concentrations.

A further data set deals with SkMC. Put plainly: Intracellular concentrations of statins and loratadine at the end of inhibition assays (HPLC-UV). Here is the method:
Instruments used consisted of a SpectraSystem P4000 pump, a SpectraSystem AS3000 autosampler, a Finnigan SpectraSystem UV6000 ultraviolet detector and a SpectraSystem SN4000 System Controller from Thermo Electron Corporation (San Jose, CA, USA). An Agilent Zorbax Column, Eclipse XDB-C8, 4.6 mm × 150 mm (Agilent, Santa Clara, CA, USA) was used at a temperature of 40 °C. An isocratic mobile phase contained 10 mM ammonium formate pH 3 and acetonitrile with varying proportions, at a flow rate of 1.0 mL/min. Details for mobile phase proportions, internal standards and monitored UV wavelengths are listed in Supplementary Table S1.
After the final incubation, cells were washed twice with PBS 10% methanol and once with PBS alone. The cells were lysed with methanol containing appropriate internal standards for the compounds of interest, then transferred and centrifuged for 10 min at room temperature. The supernatant was transferred to a culture borosilicate glass tube, evaporated and reconstituted in 100 µL of 10 mM ammonium formate pH 3 and acetonitrile (50:50 v/v). A volume of 20 µL per sample was injected. The ChromQuest Version 4.2.34 software was used for data acquisition.

For data set [2], the system named is MCT-mediated efflux transport of L-lactic acid (MCT1 and 4). The data set is described as follows: Inhibition of L-lactic acid efflux in SkMC (intracellular [14C] L-lactic acid accumulation). The data set is classed as cell-based, human. As to conditions: for Inhibitory effect on L-lactic acid efflux (in words): 0.25 to 300 µM. Here is the method: Assessment of efflux transport. A similar approach was used to measure efflux transport of L-lactic acid. For these experiments, distribution equilibrium of L-lactic acid was reached by adding MES or HEPES (pH 7.0 or 7.4; 1 mL) containing 6 mM [^14C] L-lactic acid (0.2 µCi/mL). After 10 min (to allow L-lactic acid to reach equilibrium), MES or HEPES buffer containing [^14C] L-lactic acid was replaced by L-lactic acid-free buffer for 2.5 min. Transport was stopped by placing culture plates on ice, rapidly aspirating the media and cells were washed 3-times with ice-cold HEPES buffer. Cellular radioactivity levels were determined as previously described in the Method section (Assessment of influx transport).
At the beginning of the experiment (t = 0), medium was replaced by HEPES (pH 7.4; 1 mL) buffer to wash cells. After removing the wash buffer, cells were loaded with [^14C] L-lactic acid (6 mM, 0.2 µCi/mL) in MES or HEPES buffer (pH 7.0 or pH 7.4). Briefly, following pre-incubation of cells in buffer containing [^14C] L-lactic acid for 10 min (to allow L-lactic acid to reach equilibrium), the buffer was replaced by a buffer containing [^14C] L-lactic acid and the potential inhibitor. This mixture was incubated for an additional 3 min in order to allow diffusion of the inhibitor in the cells without perturbing L-lactic acid equilibrium. Then, cells were washed once rapidly with buffer containing the tested inhibitors or vehicle, but without L-lactic acid. In the final step, the tested inhibitors or vehicle were added to the L-lactic acid-free buffer and incubated for 2.5 min as described previously for the assessment of the efflux transport. Culture plates were placed on ice to stop the reaction. Inhibition of L-lactic acid efflux was determined by measuring intracellular [^14C] L-lactic acid concentration.

The test system is the same in data set [3]. Put plainly: L-lactic acid efflux inhibition after six-day pretreatment of SkMC. It counts as cell-based, human. As to conditions: inhibitor 300 µM. Here is the method:
At the beginning of the experiment (t = 0), medium was replaced by HEPES (pH 7.4; 1 mL) buffer to wash cells. […] Then, cells were washed once rapidly with buffer containing the tested inhibitors or vehicle, but without L-lactic acid. […] Culture plates were placed on ice to stop the reaction. Inhibition of L-lactic acid efflux was determined by measuring intracellular [^14C] L-lactic acid concentration.

Details of data set [4]: method as in PMID 16453090. As to conditions: Primo study; cited from earlier work.

A word on the Km: it is the substrate concentration at which the rate is half of its maximum. `C[C@H](O)C(=O)O` [L-lactic acid, L-lactic acid sodium salt]: in data set [1] (pH 7.0), the Km turned out to be 17 mM and the “Vmax of L-lactic acid influx transport” value is listed as 90 nmol/min/mg protein. Further, in data set [1] (pH 7.4), the Km amounted to 23 mM and the “Vmax of L-lactic acid influx transport” value came to 82 nmol/min/mg protein.

On to `CC(C)c1nc(N(C)S(C)(=O)=O)nc(-c2ccc(F)cc2)c1/C=C/[C@@H](O)C[C@@H](O)CC(=O)O` [rosuvastatin], for which the “Uptake of the drug in SkMC” value with SkMC is listed as “did not have a significant uptake”. The “Inhibitory effect on L-lactic acid efflux (in words)” value in data set [2] (SkMC) was “No L-lactic acid efflux inhibition; also recorded: No significant inhibitory effect”. Moreover, the “Inhibitory effect on L-lactic acid transport (in words)” value in data set [2] (SkMC, pH 7.0) is reported as “no significant inhibitory effect”.

For the molecule `CCC(C)(C)C(=O)O[C@H]1C[C@@H](C)C=C2C=C[C@H](C)[C@H](CC[C@@H](O)C[C@@H](O)CC(=O)O)[C@H]21` [Simvastatin hydroxy acid, simvastatin hydroxyl acid ammonium salt], the “Intracellular lactic acid increase” value in data set [2] (SkMC (abstract)) is recorded as 25–35%. Also, in data set [2] (SkMC, 300 µM inhibitor), the “Maximal increase of intracellular L-lactic acid” value is 35%. The “Inhibitory effect on L-lactic acid efflux (in words)” value in data set [2] (SkMC) was “weak inhibitory potency”. In addition, the “Intracellular L-Lactic Acid Increase (%)” value is given as 65% in data set [3] (no pretreatment (Control), pH 7.4); 103% in data set [3] (six-day pretreatment 0.033 µM, pH 7.0); 51% in data set [3] (six-day pretreatment 0.033 µM, pH 7.4); 31% in data set [3] (six-day pretreatment 0.1 µM, pH 7.0); 35% in data set [3] (six-day pretreatment 0.1 µM, pH 7.4).

For the molecule `CC(C)c1c(C(=O)Nc2ccccc2)c(-c2ccccc2)c(-c2ccc(F)cc2)n1CC[C@@H](O)C[C@@H](O)CC(=O)O` [Atorvastatin], the “Rate of patients experiencing muscular discomfort” value in data set [4] is listed as 14.9%.

Turning to `CCOC(=O)N1CCC(=C2c3ccc(Cl)cc3CCc3cccnc32)CC1` [Loratadine], the “Effect of pH on intracellular accumulation of the drug” value in the data set with SkMC (SkMC, pH 7.0 compared to pH 7.4) is reported as “did not affect”.

Regarding `O=C(CCc1ccc(O)cc1)c1c(O)cc(O)cc1O` [phloretin], the “Maximal intracellular L-lactic acid augmentation” value in data set [2] (SkMC, pH 7.0, 1 to 300 µM tested) came to 2.1 fold; in data set [2] (SkMC, pH 7.4, 1 to 300 µM tested), 2.2 fold.
